Entries after “also recorded” stand apart in the source; their conditions may differ.

Holding throughout (assay type): biochemical
Assay [1] addresses T1, hemoglobin samples from healthy subjects (Homo sapiens, UniProt P68871+P69905).
T1 construct: Hemoglobin from whole blood of test subjects is immobilized to the surface of electrodes; from tissue; host or cells: whole blood of healthy subjects
In words: Electrocatalytic activity of immobilized hemoglobin from whole blood in the presence of allosteric modulators (Example 4). As to conditions: after addition of IHP 150 μM or 2,3-DPG 2 mM; 85 mM H2O2. The method, then: (§1) The assay of this example is illustrated in FIG. 8. Hemoglobin from whole blood of test subjects is immobilized to the surface of electrodes in two separate reaction cells as described in Example 1. Hydrogen peroxide at a final concentration of 85 mM is added in PBS to monitor the electrocatalytic activity for the immobilized protein. All the experiments are performed with the setup described above. The potential is repetitively cycled (3 scans) from −0.5 to 0.5 V vs. Ag/AgCl at a scan rate of 100 mV s^−1. This device is linked to a computer to record the current.
(§2) Next, inositol hexaphosphate (IHP) is added to one of the reaction cells at a final concentration of 150 μM. IHP is used to shift the tetramer/dimer equilibrium completely towards dimer. The effects are visualized through electrochemical measurements when the potential is repetitively cycled (3 scans) from −0.5 to 0.5 V vs. Ag/AgCl at a scan rate of 100 mV s^−1.
(§3) 2,3 diphosphoglycerate (2,3-DPG) is added to the second reaction cell at a final concentration of 2 mM. The stabilization of the immobilized HbA0 by 2,3-DPG, will result in higher electrocatalytic activity than normal due to the presence of more tetrameric protein molecules.

In assay [2] the target is T2, hemoglobin samples from malaria patients (Malaria-Infected HbA0) (Homo sapiens, UniProt P68871+P69905).
T2 construct: Hemoglobin from whole blood of test subjects is immobilized to the surface of electrodes; from tissue; host or cells: whole blood of malaria patients
T2 sequence (P69905 2-142): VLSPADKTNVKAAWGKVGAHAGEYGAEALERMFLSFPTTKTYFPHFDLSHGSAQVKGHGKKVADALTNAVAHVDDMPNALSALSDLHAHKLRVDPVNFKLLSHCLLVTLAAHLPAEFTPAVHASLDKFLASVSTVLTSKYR
T2 sequence (P68871 2-147): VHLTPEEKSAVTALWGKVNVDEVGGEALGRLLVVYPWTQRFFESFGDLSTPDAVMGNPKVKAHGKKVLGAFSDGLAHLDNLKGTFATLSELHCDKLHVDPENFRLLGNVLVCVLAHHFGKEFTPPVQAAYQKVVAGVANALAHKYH
The assay is described as above. Conditions: change after adding modulator; IHP 150 μM, 2,3-DPG 2 mM; 85 mM H2O2. The method, then: as §1, §2, §3

The target of a further assay is T3, human hemoglobin (HbA0) (Homo sapiens, UniProt P68871+P69905).
T3 construct: purchased Sigma chemicals H-267
T3 sequence (P69905 2-142 limits assumed): as the sequence (P69905 2-142) above
T3 sequence (P68871 2-147 limits assumed): as the sequence (P68871 2-147) above
The assay can be described thus: Peroxidase (electrocatalytic) activity of hemoglobin immobilized on nickel coated electrode, cyclic voltammetry with H2O2. Conditions: for peroxidase activity of immobilized HbA0: IHP 150 μM or 2,3-DPG 2 mM, versus hemoglobin control (FIG. 5); for peroxidase activity of immobilized HbA0 / Electrocatalytic Activity in Healthy HbA0: 85 mM H2O2; for Electrocatalytic Activity in Healthy HbA0: change after adding modulator, IHP 150 μM, 2,3-DPG 2 mM. Here is the method: Crystal ferrous human hemoglobin (HbA0) was obtained from Sigma chemicals (H-267). The stock solution was prepared by dissolving 5 mg HbA0 in one milliliter of 0.05 M phosphate buffered saline (pH 7.2) (Sigma chemicals).
For the electrochemical experiments we used a computer controlled Autolab (PGSTAT) modular electrochemical system (Eco Chemie Ultecht, The Netherlands) that was operated with GPES software (Eco Chemie). All experiments were performed in a conventional three-electrode system cell with an Ag/AgCl reference electrode (BAST), a Pt wire as counter electrode, and a nickel coated chip as working electrode at ambient room temperature (21° C.).
Cyclic voltammetry was used for the immobilization of hemoglobin onto nickel coated electrodes following a similar approach as Salimi et al. To immobilize hemoglobin on the electrode surface, the electrodes were immersed in fresh 0.05 M phosphate buffer solution (pH 7.2) containing 5 mg ml-1 hemoglobin and the potential was repetitively cycled (30 scans) from 1 to −0.5 V vs. Ag/AgCI at a scan rate of 100 mV s^−1. After immobilization, the chips were washed thoroughly with phosphate buffer and subsequently subjected to cyclovoltammetric measurements in the presence of 0-8 M urea.
After hemoglobin immobilization the chips were incubated in presence of 0-8 M urea for 30 min. Hydrogen peroxide (85 mM) was added to monitor the peroxidase activity change for the unfolded protein. All the experiments were performed with the setup described for electrochemical measurements. The potential was repetitively cycled (3 scans) from −0.5 to 0.5 V vs. Ag/AgCI at a scan rate of 100 mV s^−1. In a control experiment the same electrochemical measurements were performed on a reference chip without immobilized hemoglobin.
In a control experiment, after the immobilization of hemoglobin on the chip, the tetramer dimer equilibrium was shifted towards dimer by inositol hexaphosphate at a final concentration of 150 μM and electrochemical measurements were performed. The potential was repetitively cycled (3 scans) from −0.5 to 0.5 V vs. Ag/AgCI at a scan rate of 100 mV s^−1 as described before. The peroxidase activity of hemoglobin was also measured under this condition by adding 85 mM hydrogen peroxide. In another control experiment, the same electrochemical and peroxidase activity measurements were performed on immobilized hemoglobin in presence of the tetramer stabilizer 2,3-DPG at a final concentration of 2 mM.

T1 sequence (P69905 2-142 limits assumed): as the sequence (P69905 2-142) above
T1 sequence (P68871 2-147 limits assumed): as the sequence (P68871 2-147) above

With `O=C(O)C(COP(=O)(O)O)OP(=O)(O)O` (stereo not drawn) [2,3-DPG, 2,3-diphosphoglycerate], the “current measured at the electrode surface, hemoglobin samples from healthy subjects” value in assay [1] was “increase”. Moreover, in assay [2], the “Electrocatalytic Activity in Malaria-Infected HbA0” value is “not be a significant change; also recorded: No change”. On human hemoglobin (HbA0), the “peroxidase activity of immobilized HbA0” value is “increased” and the “Electrocatalytic Activity in Healthy HbA0” value is recorded as “Increase”.

For `O=P(O)(O)O[C@H]1[C@H](OP(=O)(O)O)[C@@H](OP(=O)(O)O)[C@H](OP(=O)(O)O)[C@@H](OP(=O)(O)O)[C@H]1OP(=O)(O)O` [IHP, inositol hexaphosphate], in assay [1], the “current measured at the electrode surface, hemoglobin samples from healthy subjects” value is given as “decrease”. For the same compound, in assay [2], the “Electrocatalytic Activity in Malaria-Infected HbA0” value is recorded as “not be a significant change; also recorded: No change”. Also, at human hemoglobin (HbA0), the “peroxidase activity of immobilized HbA0” value was “decrease” and the “Electrocatalytic Activity in Healthy HbA0” value is listed as “Decrease”.

`NC(N)=O` [urea]: on human hemoglobin (HbA0) (0-8 M urea, 30 min incubation, 85 mM H2O2 (FIG. 4)), the “electrochemical current (peroxidase activity of hemoglobin immobilized chip)” value is “decrease”.

Source of the values: patent US9513299B2, “Methods for the detection and diagnosis of malaria using an electrochemical sensor” (EMPIRE TECHNOLOGY DEVELOPMENT LLC, priority 2010, dated 2016).
